Our source for the inhibition values is ChEMBL document CHEMBL5678812, “Inhibitors of p21-activated kinases (PAKs)” (J Med Chem, 2015).

SMILES strings stand for the structures.

For one test, the species on record is Homo sapiens. Description: Inhibition of CDK2/cyclinA (unknown origin) at 0.1 uM relative to control.
Test [1] has as its target Serine/threonine-protein kinase mTOR (Homo sapiens) (UniProt P42345). In words: Inhibition of mTOR (unknown origin) at 0.1 uM relative to control.
Test [2] deals with Protein kinase C epsilon type (Homo sapiens) (UniProt Q02156). Description: Inhibition of PKCepsilon (unknown origin) at 0.1 uM relative to control.
Test [3] deals with Serine/threonine-protein kinase N1 (Homo sapiens) (UniProt Q16512). In words: Inhibition of PRK1 (unknown origin) at 0.1 uM relative to control.
Sequence of Serine/threonine-protein kinase N1 (Homo sapiens) (Q16512 2-942 limits assumed): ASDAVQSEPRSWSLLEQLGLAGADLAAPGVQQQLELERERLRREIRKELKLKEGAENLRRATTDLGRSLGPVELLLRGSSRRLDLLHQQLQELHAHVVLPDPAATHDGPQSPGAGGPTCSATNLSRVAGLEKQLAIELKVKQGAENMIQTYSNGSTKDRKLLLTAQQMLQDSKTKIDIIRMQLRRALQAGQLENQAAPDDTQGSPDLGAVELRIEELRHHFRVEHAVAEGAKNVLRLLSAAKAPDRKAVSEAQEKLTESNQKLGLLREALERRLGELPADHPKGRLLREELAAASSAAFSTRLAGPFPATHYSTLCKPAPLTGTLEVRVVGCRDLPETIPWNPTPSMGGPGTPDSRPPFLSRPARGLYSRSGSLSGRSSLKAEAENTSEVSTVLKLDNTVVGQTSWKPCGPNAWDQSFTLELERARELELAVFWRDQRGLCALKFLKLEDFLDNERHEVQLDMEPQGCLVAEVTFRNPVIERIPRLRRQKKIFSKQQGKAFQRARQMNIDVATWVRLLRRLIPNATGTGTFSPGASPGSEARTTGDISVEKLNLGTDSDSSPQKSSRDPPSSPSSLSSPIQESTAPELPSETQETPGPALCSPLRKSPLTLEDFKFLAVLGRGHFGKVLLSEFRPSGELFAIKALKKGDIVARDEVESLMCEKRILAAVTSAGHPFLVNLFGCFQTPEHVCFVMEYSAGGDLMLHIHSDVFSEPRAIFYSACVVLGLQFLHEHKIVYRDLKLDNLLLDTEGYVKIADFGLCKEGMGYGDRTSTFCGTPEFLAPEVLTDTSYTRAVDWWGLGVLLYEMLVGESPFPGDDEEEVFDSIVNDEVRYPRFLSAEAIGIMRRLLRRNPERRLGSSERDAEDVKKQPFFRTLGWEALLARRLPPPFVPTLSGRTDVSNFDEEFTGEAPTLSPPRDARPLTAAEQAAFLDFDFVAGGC
Test [4] has as its target Dual specificity protein kinase CLK3 (Homo sapiens) (UniProt P49761). In words: Inhibition of CLK3 (unknown origin) at 0.1 uM relative to control.
The target of test [5] is Serine/threonine-protein kinase MRCK alpha (Homo sapiens) (UniProt Q5VT25). In words: Inhibition of MRCKalpha (unknown origin) at 0.1 uM relative to control.
The target of test [6] is Vascular endothelial growth factor receptor 3 (Homo sapiens) (UniProt P35916). In words: Inhibition of Flt4 (unknown origin) at 0.1 uM relative to control.
Test [7] concerns the target Serine/threonine-protein kinase Sgk2 (Homo sapiens) (UniProt Q9HBY8). In words: Inhibition of SGK2 (unknown origin) at 0.1 uM relative to control.
Test [8] concerns the target SRSF protein kinase 1 (Homo sapiens) (UniProt Q96SB4). Description: Inhibition of SRPK1 (unknown origin) at 0.1 uM relative to control.
The target in test [9] is Tyrosine-protein kinase JAK1 (Homo sapiens) (UniProt P23458). In words: Inhibition of JAK1 (unknown origin) at 0.1 uM relative to control.
The target in test [10] is Maternal embryonic leucine zipper kinase (Homo sapiens) (UniProt Q14680). In words: Inhibition of MELK (unknown origin) at 0.1 uM relative to control.
Test [11] has as its target Serine/threonine-protein kinase pim-2 (Homo sapiens) (UniProt Q9P1W9). Description: Inhibition of PIM2 (unknown origin) at 0.1 uM relative to control.
For test [12], the target named is BDNF/NT-3 growth factors receptor (Homo sapiens) (UniProt Q16620). In words: Inhibition of TrkB (unknown origin) at 0.1 uM relative to control.
Test [13] addresses Serine/threonine-protein kinase Nek4 (Homo sapiens) (UniProt P51957). In words: Inhibition of NEK4 (unknown origin) at 0.1 uM relative to control.
The target in test [14] is Mitogen-activated protein kinase 14 (Homo sapiens) (UniProt Q16539). Description: Inhibition of p38alpha (unknown origin) at 0.1 uM relative to control.
The target of test [15] is Hepatocyte growth factor receptor (Homo sapiens) (UniProt P08581). In words: Inhibition of Met (unknown origin) at 0.1 uM relative to control.
Test [16] deals with Homeodomain-interacting protein kinase 4 (Homo sapiens) (UniProt Q8NE63). Description: Inhibition of HIPK4 (unknown origin) at 0.1 uM relative to control.
Sequence of Homeodomain-interacting protein kinase 4 (Homo sapiens) (Q8NE63 whole entry): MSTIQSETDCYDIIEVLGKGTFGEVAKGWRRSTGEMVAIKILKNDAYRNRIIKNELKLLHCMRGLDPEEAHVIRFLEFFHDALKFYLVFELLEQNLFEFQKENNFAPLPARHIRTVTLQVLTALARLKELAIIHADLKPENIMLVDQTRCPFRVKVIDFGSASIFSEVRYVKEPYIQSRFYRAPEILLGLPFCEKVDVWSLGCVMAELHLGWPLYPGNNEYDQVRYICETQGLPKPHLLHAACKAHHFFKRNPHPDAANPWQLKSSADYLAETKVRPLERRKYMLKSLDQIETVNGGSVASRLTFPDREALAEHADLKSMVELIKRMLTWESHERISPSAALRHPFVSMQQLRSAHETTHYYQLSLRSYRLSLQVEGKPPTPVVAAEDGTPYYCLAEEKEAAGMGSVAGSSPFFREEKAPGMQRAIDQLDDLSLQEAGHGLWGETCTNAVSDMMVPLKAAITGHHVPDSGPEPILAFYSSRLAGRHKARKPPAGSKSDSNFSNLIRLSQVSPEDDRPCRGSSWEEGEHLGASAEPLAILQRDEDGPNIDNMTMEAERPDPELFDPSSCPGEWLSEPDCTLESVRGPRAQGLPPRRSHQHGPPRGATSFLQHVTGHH
The target of test [17] is Mitogen-activated protein kinase 11 (Homo sapiens) (UniProt Q15759). In words: Inhibition of p38beta (unknown origin) at 0.1 uM relative to control.
Test [18] concerns the target Inhibitor of nuclear factor kappa-B kinase subunit epsilon (Homo sapiens) (UniProt Q14164). Description: Inhibition of IKKepsilon (unknown origin) at 0.1 uM relative to control.
Test [19] concerns the target Homeodomain-interacting protein kinase 1 (Homo sapiens) (UniProt Q86Z02). Description: Inhibition of HIPK1 (unknown origin) at 0.1 uM relative to control.
The target of test [20] is Dual specificity mitogen-activated protein kinase kinase 2 (Homo sapiens) (UniProt P36507). Description: Inhibition of MEK2 (unknown origin) at 0.1 uM relative to control.
The target in test [21] is Serine/threonine-protein kinase PLK2 (Homo sapiens) (UniProt Q9NYY3). Description: Inhibition of PLK2 (unknown origin) at 0.1 uM relative to control.
In test [22] the target is Dual specificity tyrosine-phosphorylation-regulated kinase 4 (Homo sapiens) (UniProt Q9NR20). Description: Inhibition of DYRK4 (unknown origin) at 0.1 uM relative to control.
Test [23] has as its target Serine/threonine-protein kinase PAK 3 (Homo sapiens, UniProt O75914). Description: Inhibition of PAK3 (unknown origin) at 0.1 uM relative to control.
Test [24] has as its target cAMP-dependent protein kinase catalytic subunit PRKX (Homo sapiens) (UniProt P51817). Description: Inhibition of PrKX (unknown origin) at 0.1 uM relative to control.
Test [25] addresses Focal adhesion kinase 1 (Homo sapiens) (UniProt Q05397). In words: Inhibition of FAK (unknown origin) at 0.1 uM relative to control.
The target in test [26] is PAS domain-containing serine/threonine-protein kinase (Homo sapiens) (UniProt Q96RG2). In words: Inhibition of PASK (unknown origin) at 0.1 uM relative to control.
The target of test [27] is Proto-oncogene tyrosine-protein kinase receptor Ret (Homo sapiens) (UniProt P07949). Description: Inhibition of Ret (unknown origin) at 0.1 uM relative to control.
Sequence of Proto-oncogene tyrosine-protein kinase receptor Ret (Homo sapiens) (P07949 whole entry): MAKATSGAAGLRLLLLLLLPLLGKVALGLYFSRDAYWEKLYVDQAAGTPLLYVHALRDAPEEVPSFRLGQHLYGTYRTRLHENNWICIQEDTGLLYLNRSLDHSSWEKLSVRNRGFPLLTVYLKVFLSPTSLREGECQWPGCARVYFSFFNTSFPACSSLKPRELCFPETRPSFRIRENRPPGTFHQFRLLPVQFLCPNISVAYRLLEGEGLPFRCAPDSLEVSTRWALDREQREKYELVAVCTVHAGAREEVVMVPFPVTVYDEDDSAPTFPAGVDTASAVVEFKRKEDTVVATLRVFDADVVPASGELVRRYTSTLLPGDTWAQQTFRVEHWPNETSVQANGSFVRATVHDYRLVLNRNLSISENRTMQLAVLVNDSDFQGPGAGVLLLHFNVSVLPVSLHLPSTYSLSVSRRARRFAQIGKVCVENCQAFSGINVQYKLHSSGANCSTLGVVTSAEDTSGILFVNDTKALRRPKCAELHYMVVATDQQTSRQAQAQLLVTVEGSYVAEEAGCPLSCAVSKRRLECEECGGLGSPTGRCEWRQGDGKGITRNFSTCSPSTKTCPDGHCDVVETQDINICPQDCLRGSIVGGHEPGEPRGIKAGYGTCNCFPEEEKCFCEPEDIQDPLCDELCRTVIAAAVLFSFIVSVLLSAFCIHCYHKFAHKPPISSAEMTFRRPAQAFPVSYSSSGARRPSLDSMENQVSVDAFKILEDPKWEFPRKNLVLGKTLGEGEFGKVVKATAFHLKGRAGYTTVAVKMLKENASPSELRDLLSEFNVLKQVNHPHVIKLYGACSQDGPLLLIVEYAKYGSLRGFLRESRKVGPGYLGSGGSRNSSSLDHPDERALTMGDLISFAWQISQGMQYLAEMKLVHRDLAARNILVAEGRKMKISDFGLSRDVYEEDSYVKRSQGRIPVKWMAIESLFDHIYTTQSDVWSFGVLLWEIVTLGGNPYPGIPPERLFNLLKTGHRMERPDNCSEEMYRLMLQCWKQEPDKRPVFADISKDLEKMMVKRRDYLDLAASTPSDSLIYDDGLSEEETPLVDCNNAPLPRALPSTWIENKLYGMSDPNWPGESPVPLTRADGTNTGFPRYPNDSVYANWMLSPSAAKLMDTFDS
Test [28] concerns the target Leukocyte tyrosine kinase receptor (Homo sapiens) (UniProt P29376). Description: Inhibition of LTK (unknown origin) at 0.1 uM relative to control.
Test [29] has as its target Serine/threonine-protein kinase Sgk3 (Homo sapiens) (UniProt Q96BR1). Description: Inhibition of SGK3 (unknown origin) at 0.1 uM relative to control.
For test [30], the target named is MAP kinase-interacting serine/threonine-protein kinase 1 (Homo sapiens) (UniProt Q9BUB5). Description: Inhibition of MKNK1 (unknown origin) at 0.1 uM relative to control.
The target in test [31] is Vascular endothelial growth factor receptor 2 (Homo sapiens) (UniProt P35968). Description: Inhibition of KDR (unknown origin) at 0.1 uM relative to control.
Sequence of Vascular endothelial growth factor receptor 2 (Homo sapiens) (P35968 whole entry): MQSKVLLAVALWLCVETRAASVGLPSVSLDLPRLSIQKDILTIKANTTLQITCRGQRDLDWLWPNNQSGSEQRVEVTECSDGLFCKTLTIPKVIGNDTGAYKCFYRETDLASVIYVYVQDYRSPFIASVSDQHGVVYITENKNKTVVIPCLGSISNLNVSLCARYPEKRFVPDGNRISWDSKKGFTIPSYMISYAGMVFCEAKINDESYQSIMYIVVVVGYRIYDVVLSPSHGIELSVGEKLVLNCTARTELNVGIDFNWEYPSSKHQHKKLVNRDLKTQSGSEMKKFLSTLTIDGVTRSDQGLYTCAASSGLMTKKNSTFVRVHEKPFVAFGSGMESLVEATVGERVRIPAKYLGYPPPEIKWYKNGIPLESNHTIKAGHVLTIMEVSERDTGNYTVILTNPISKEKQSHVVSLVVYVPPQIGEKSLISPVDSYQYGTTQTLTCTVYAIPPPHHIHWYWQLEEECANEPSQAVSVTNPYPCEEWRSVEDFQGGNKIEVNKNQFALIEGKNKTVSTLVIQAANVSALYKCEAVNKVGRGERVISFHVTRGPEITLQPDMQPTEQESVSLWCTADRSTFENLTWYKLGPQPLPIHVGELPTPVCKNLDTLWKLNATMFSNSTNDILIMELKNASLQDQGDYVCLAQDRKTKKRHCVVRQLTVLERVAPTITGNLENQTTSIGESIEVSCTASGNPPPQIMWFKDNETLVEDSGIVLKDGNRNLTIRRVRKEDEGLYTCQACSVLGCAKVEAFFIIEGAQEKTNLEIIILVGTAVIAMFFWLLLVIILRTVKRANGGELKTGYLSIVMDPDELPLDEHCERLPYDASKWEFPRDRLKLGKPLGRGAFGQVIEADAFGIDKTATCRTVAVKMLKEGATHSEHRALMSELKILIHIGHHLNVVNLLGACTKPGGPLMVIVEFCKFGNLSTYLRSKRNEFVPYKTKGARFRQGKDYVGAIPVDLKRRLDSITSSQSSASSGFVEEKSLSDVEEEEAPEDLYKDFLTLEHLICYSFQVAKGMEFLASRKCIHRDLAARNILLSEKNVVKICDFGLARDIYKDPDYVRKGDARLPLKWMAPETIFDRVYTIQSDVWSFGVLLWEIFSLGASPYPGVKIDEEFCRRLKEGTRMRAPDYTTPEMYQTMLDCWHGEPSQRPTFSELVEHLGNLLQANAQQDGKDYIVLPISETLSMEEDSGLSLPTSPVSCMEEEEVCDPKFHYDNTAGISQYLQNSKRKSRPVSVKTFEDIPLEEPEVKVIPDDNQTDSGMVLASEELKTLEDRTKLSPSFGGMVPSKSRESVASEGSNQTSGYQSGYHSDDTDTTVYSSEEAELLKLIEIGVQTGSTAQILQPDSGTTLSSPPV
In test [32] the target is Megakaryocyte-associated tyrosine-protein kinase (Homo sapiens) (UniProt P42679). In words: Inhibition of Hyl (unknown origin) at 0.1 uM relative to control.
In test [33] the target is Serine/threonine-protein kinase DCLK2 (Homo sapiens) (UniProt Q8N568). Description: Inhibition of DCAMKL2 (unknown origin) at 0.1 uM relative to control.
The target in test [34] is Tyrosine-protein kinase Lck (Homo sapiens) (UniProt P06239). In words: Inhibition of Lck (unknown origin) at 0.1 uM relative to control.
The target of test [35] is Serine/threonine-protein kinase WNK2 (Homo sapiens) (UniProt Q9Y3S1). Description: Inhibition of WNK2 (unknown origin) at 0.1 uM relative to control.
Test [36] has as its target TGF-beta receptor type-1 (Homo sapiens) (UniProt P36897). Description: Inhibition of TGFBR1 (unknown origin) at 0.1 uM relative to control.
In test [37] the target is LIM domain kinase 1 (Homo sapiens) (UniProt P53667). In words: Inhibition of LIMK1 (unknown origin) at 0.1 uM relative to control.
Test [38] addresses Tyrosine-protein kinase Lyn (Homo sapiens) (UniProt P07948). In words: Inhibition of LynB (unknown origin) at 0.1 uM relative to control.

Sequence of Serine/threonine-protein kinase Sgk3 (Homo sapiens) (Q96BR1 whole entry): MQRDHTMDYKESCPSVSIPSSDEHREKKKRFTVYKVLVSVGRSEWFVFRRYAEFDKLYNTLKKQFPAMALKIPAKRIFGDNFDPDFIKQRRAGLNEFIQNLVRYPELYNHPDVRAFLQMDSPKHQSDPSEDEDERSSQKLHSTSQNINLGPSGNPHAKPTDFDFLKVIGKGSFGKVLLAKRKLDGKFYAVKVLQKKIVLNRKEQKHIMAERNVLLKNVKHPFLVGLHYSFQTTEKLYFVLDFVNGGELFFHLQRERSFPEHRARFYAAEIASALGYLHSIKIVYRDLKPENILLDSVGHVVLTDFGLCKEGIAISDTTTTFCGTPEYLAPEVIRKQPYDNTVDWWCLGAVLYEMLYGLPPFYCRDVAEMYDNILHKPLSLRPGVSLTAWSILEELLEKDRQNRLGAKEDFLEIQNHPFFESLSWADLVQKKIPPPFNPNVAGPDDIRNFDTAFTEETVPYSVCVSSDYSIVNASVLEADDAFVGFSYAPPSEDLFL
Sequence of Serine/threonine-protein kinase PAK 3 (O75914 whole entry, looked up): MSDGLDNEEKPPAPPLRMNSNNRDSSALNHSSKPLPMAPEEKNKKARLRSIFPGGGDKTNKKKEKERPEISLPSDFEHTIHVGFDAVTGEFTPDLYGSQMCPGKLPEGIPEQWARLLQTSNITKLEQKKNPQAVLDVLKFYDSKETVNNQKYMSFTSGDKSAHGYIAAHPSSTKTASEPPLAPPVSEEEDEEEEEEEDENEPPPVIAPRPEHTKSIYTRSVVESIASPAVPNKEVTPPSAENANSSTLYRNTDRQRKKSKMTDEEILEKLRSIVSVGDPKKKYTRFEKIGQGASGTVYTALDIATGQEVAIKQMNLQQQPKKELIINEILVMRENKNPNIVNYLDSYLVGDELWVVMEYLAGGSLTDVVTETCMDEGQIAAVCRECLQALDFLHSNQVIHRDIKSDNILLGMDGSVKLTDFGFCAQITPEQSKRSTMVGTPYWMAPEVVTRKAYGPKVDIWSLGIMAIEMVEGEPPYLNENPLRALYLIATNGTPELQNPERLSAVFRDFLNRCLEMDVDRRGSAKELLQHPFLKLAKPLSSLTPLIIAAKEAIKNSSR

Regarding `COCCNc1nc2ccc(C#CC3(O)CCCCC3)cc2n1-c1ccnc(N)n1`, the inhibition is 1.9% in the test filed under Homo sapiens; -2.4% in test [1]; 8.3% in test [2]; -2.3% in test [3]; 8.9% in test [4]; -2.4% in test [5]. Also, the inhibition was 1% in test [6]; -2.9% in test [7]; 5.4% in test [8]; 0.1% in [9]; 4.1% in test [10]; 8.4% in test [11]. Further, the inhibition is 15.1% in test [12]; 2% in test [13]; 4.4% in test [14]; 2.6% in test [15]; 5% in test [16]; -6.4% in test [17]. Moreover, the inhibition was 6% in [18]; 1.7% in test [19]; -0.6% in [20]; 10.8% in test [21]; -3% in test [22]; 3.3% in test [23]. The inhibition in [24] was 5.3%; in [25] it was 3.5%; in test [26] it was 15.9%; in [27] it was 4.4%; in [28], -0.9%; in test [29] it was 9.3%. The inhibition was -2.7% in test [30]; -3.1% in [31]; 6.6% in test [32]; 10.9% in test [33]; 7.6% in test [34].
In the case of `CN1CCc2cc(-c3cnc4[nH]cc(C(=O)c5ccccc5Cl)c4c3)ccc2C1`, the inhibition in test [3] is -1.6%; in test [35], 0%; in test [36], 99.3%; in test [37], 42.4%; in [14], 34.8%; in test [15], 13.3%. In addition, the inhibition in [16] was found to be 18.6%; in [23], 92.6%; in [27], 18.4%; in test [29] it was 19.5%; in test [38] it was 99.8%; in test [31], 72.2%.

As usually defined, the inhibition is the drop in the measured response relative to a control, in per cent.
